Data reported in ChEMBL document CHEMBL1221220, “Transport and signaling via the amino acid binding site of the yeast Gap1 amino acid transceptor” (Nat Chem Biol, 2009).
Numbering of substitutions follows the chain as printed. Active and inactive are the calls of the source. No cut-off for these calls is given here.

Legend:
[1] = test system: T1, General amino-acid permease GAP1 (Saccharomyces cerevisiae), P19145 [G390C]; experiment: Induction of yeast Gap1 G390C mutant-mediated amino acid uptake at 2 mM in presence of 10 mM MTSEA treated before compound addition
T1 sequence (whole entry): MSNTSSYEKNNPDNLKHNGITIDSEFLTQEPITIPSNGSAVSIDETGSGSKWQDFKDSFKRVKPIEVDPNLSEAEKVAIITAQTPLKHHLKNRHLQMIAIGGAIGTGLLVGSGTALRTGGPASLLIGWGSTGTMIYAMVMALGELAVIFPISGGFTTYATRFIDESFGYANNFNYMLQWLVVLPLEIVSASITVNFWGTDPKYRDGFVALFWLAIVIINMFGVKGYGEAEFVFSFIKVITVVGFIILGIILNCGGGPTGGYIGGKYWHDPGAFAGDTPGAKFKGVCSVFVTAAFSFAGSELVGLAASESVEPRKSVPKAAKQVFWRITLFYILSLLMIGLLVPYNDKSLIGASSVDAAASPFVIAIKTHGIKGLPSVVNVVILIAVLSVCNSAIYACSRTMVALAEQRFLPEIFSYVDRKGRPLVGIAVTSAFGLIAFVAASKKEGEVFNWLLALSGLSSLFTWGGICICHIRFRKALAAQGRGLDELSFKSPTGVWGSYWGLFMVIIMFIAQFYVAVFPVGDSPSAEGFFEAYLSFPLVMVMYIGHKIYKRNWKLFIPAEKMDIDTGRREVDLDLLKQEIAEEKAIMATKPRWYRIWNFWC

[2] = test system: T2, General amino-acid permease GAP1 (Saccharomyces cerevisiae), P19145 [L387C]; experiment: Activation of yeast Gap1 L387C mutant-mediated amino acid uptake at 10 mM
T2 sequence (whole entry): T1 sequence (whole entry) with L387C, C390G

[3] = test system: General amino-acid permease GAP1 (Saccharomyces cerevisiae), P19145 [V389C]; experiment: Induction of yeast Gap1 V389C mutant-mediated amino acid uptake at 2 mM in presence of 10 mM MTSEA treated before compound addition
Sequence of General amino-acid permease GAP1 (Saccharomyces cerevisiae), P19145 [V389C] (P19145 whole entry V389C): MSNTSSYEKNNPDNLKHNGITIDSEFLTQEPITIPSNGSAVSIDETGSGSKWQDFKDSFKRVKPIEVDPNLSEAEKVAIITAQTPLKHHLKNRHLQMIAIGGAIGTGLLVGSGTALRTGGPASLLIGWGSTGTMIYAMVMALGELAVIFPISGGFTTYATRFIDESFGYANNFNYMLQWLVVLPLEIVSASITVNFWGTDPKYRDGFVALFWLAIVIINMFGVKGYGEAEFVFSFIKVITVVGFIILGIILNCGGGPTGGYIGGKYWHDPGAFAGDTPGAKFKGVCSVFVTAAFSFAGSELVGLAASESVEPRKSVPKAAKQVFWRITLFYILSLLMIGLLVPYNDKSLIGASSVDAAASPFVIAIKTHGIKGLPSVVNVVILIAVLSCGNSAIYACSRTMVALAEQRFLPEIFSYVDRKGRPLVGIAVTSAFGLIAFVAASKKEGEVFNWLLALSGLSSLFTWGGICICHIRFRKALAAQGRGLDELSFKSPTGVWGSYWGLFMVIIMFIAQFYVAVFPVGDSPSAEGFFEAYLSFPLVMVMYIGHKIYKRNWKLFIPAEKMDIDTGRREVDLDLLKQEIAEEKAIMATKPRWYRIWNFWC

[4] = test system: T3, General amino-acid permease GAP1 (Saccharomyces cerevisiae), P19145 [I382C]; experiment: Induction of yeast Gap1 I382C mutant-mediated trehalose activation at 2 mM in presence of 10 mM MTSEA treated before compound addition
T3 sequence (whole entry): T1 sequence (whole entry) with I382C, C390G

[5] = test system: T4, General amino-acid permease GAP1 (Saccharomyces cerevisiae), P19145 [L383C]; experiment: Activation of yeast Gap1 L383C mutant-mediated amino acid uptake at 10 mM
T4 sequence (whole entry): T1 sequence (whole entry) with L383C, C390G

[6] = test system: T2, General amino-acid permease GAP1 (Saccharomyces cerevisiae), P19145 [L387C]; experiment: Induction of yeast Gap1 L387C mutant-mediated trehalose activation at 2 mM in presence of 10 mM MTSEA treated before compound addition

Activity [1]: Active
Activity [2]: inactive
inhibition [3]: inactive
inhibition [4]: Active
Activity [5]: inactive
inhibition [6]: Active
Compound: NC(=O)NCCC[C@H](N)C(=O)O
